Key:
[1] = system: IL-6 production in RAW264.7 cells; experiment: LPS-induced IL-6 production in RAW264.7 cells (ELISA); assay type: cell-based, mouse
Method: The inhibitory effect on induced IL-6 cytokine production was analyzed. RAW264.7 cells (obtained from the Korean Cell Line Bank) were seeded at a density of 5×10^5 cells/well in a 12-well plate and stabilized in a CO2 incubator at 37° C. with 5% carbon dioxide and saturated humidity. After 24 hours of incubation, the compounds of the present invention were prepared in DMEM at concentrations of 0 μg/mL or 8 μg/mL and pre-treated for 30 minutes. Next, lipopolysaccharide (LPS, Sigma-Aldrich, Cat No. L2887) was treated to a concentration of 1 μg/mL to induce an inflammatory response for 24 hours. Subsequently, mouse IL-6 ELISA kit (Labiskoma, Cat No. K0331230P) and mouse TNF-α ELISA kit (Labiskoma, Cat No. K0331186P) were used according to the manufacturer's instructions, and absorbance was measured. FK506 (FK-506 monohydrate, manufacturer: MilliporeSigma, product number: F4679, U.S.A) was used as a control substance.
After inducing inflammation as described in (1) and (2) above, the supernatant was collected, and the quantification of IL-6 in the supernatant was performed using the IL-6 ELISA kit (Mouse IL-6 ELISA Kit, pink-ONE, manufactured by Komabiotech, Product No. K0331230P) according to the manufacturer's instructions. Specifically, the amount of IL-6 in the supernatant was quantified according to the ELISA kit protocol, and the absorbance was measured at OD 450 nm using a microplate reader (Multiskan Sky, manufactured by Thermo Fisher Scientific). […] In Table 1 to Table 3, FIG. 1, and FIG. 2, the relative values of IL-6 generated after pretreatment with the compounds of the present invention were expressed as a percentage relative to the IL-6 production (100%) induced by LPS, TNF-α, or IFN-β treatment.

[2] = system: TSLP in HaCaT keratinocytes; settings: 8 μg/ml, 1 h pre-treatment, TNF-α 100 ng/ml 24 h; compared to the control group FK506
Method: (§1) HaCaT keratinocytes, a human skin keratinocyte cell line (obtained from the Korean Cell Line Bank), were seeded in a 12-well plate at a density of 1×10^5 cells per well and cultured for at least 12 hours in a 37° C. humidified incubator containing 5% carbon dioxide and saturated water vapor. After pre-treatment with the compound 77 of the present invention (0 μg/ml or 8 μg/ml) or the immunosuppressant FK506 (FK-506 monohydrate, manufacturer: MilliporeSigma product number: F4679, USA) as a control for 1 hour, TNF-α (Tumor Necrosis Factor-α human, manufacturer: MilliporeSigma) was treated for 24 hours as an inflammatory response inducer at a concentration of 100 ng/ml. Next, the supernatant was obtained and TSLP and IL-6 ELISA (Human TSLP and IL-6 ELISA Kit, pink-ONE, manufacturer: Komabiotech) each was performed. Specifically, the contents of TSLP and IL-6 in the supernatant were quantified according to the protocol of the ELISA kit with the supernatant, and absorbance was measured at a wavelength of 450 nm using a microplate reader (Multiskan Sky, manufacturer: Thermo Fisher Scientific, product number: 51119600DP).

[3] = system: interleukin-6 in HaCaT keratinocytes; settings: 8 μg/ml, 1 h pre-treatment, TNF-α 100 ng/ml 24 h; compared to the control group FK506
Method: as §1

## CCCC(N)C(=O)NCCc1ccc(-c2ccc(C(F)(F)F)cc2)cc1.Cl (racemic) [Compound 77, (R)/(S)-2-amino-N-(2-(4′-(trifluoromethyl)-[1,1′-biphenyl]-4-yl)ethyl)pentanamide hydrochloride]
[1]; Table 1, LPS 1 μg/mL 24 h, compound 77 at 8 μg/ml, FK506 concentration not given
  IL-6: 191.20 pg/mL
[1]; Table 1, relative to IL-6 production induced by LPS (100%), compound 77 at 8 μg/ml, FK506 concentration not given
  IL-6 (%): 13.19%
[1]; Table 3, LPS 1 μg/mL 24 h, compounds at 8 μg/mL (FIG. 1), LPS alone = 100%
  Relative amount of IL-6 compared to LPS induction (%): 5%
[2]
  amount of TSLP: significantly reduced
[3]
  amount of interleukin-6: significantly reduced

Reference: patent US20250281433A1, “NOVEL DERIVATIVE COMPOUND HAVING BIPHENYL GROUP INTRODUCED INTO AMINO-ALKANOIC ACID AND ANTI-INFLAMMATORY COMPOSITION COMPRISING SAME” (AMTIXBIO CO., LTD., priority 2020, published 2025)
